From paper PMC3898987 (Bioorganic & Medicinal Chemistry, 2013) come the findings set out here.

For orientation: IC50 means the midpoint of a concentration-inhibition curve.

Holding throughout (experiment): FlexStation membrane potential dye functional assay, HEK293 cells
Common to all, as to assay type: cell-based
What all share (design): expressed in transfected cells; host or cells: HEK293

In one assay the target is T1, 5-HT3A receptor S163A (Homo sapiens, UniProt P46098, S158A).
T1 sequence (P46098 24-478 S158A): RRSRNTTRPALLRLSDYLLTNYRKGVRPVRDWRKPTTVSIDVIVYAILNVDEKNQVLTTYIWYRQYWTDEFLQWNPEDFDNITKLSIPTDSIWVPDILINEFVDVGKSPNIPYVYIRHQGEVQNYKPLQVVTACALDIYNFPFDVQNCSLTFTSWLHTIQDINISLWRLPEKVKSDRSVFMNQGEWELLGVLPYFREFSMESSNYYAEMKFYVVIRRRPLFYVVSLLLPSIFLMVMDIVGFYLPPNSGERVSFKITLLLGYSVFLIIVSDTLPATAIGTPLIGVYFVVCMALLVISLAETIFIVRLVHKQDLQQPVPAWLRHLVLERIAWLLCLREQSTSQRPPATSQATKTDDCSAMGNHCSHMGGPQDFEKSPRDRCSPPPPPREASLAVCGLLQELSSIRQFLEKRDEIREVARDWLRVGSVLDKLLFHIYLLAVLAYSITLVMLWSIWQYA
The note with it: 5-HT3A S163A.

The next assay addresses T2, 5-HT3A receptor F130A (Homo sapiens, UniProt P46098, F125A).
T2 sequence (P46098 24-478 F125A): T1 sequence (P46098 24-478 S158A) with F102A, A135S
The note with it: 5-HT3A F130A.

The target of the next assay is T3, WT 5-HT3AB receptor (Homo sapiens, UniProt O95264+P46098).
T3 sequence (P46098 24-478): T1 sequence (P46098 24-478 S158A) with A135S
T3 sequence (O95264 22-441): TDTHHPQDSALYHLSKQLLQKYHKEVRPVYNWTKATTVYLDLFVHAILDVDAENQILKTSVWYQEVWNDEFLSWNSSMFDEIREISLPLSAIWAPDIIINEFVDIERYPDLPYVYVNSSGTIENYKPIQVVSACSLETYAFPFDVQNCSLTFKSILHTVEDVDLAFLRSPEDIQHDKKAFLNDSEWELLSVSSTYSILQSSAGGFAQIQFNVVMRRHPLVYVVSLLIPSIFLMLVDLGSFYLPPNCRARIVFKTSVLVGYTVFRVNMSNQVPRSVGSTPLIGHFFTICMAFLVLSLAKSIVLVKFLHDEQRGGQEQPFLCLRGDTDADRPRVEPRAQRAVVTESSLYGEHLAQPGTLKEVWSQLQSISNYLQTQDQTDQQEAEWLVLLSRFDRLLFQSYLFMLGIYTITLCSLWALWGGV

Another assay has as its target T4, 5-HT3A receptor D165K (Homo sapiens, UniProt P46098, D160K).
T4 sequence (P46098 24-478 D160K): T1 sequence (P46098 24-478 S158A) with A135S, D137K
The note with it: 5-HT3A D165K.

[1] abbreviates: inhibition of 5-HT (EC50 concentration) response, 45 min preincubation.

Each structure is given as a SMILES string. Substitutions are numbered along the chain they refer to. Where “and” joins values, the source holds several entries; their conditions need not be identical. Equal entries are not always repeated.

Description for 5-HT3A receptor D165K: (§1) Human embryonic kidney (HEK) 293 cells were cultured on 90 mm tissue culture plates at 37 °C and 7% CO2 in a humidified atmosphere. They were grown in DMEM:F12 (Dulbecco’s Modified Eagle’s Medium/Nutrient Mix F12 (1:1)) with GlutaMAX I™ containing 10% fetal calf serum and passaged when confluent. […] For FlexStation assays, transfected cells were plated on 96-well plates and incubated 1–2 days before assay.
(§2) Fluorometric studies were undertaken using a FlexStation® (Molecular Devices, Sunnyvale, CA, USA) as previously described.[11]
(§3) Fluorescence was measured every 2 s for 200 s. […] Concentration–response and inhibition curves were obtained for each mutant, and the fluorescence values were normalized to the maximal response.
Description for 5-HT3A receptor F130A: as §1, §2, §3
Description for 5-HT3A receptor S163A: as §1, §2, §3
Description for WT 5-HT3AB receptor: as §1, §2, §3

For the compound `O=C1c2cccc3c2[C@H](CCC3)CN1[C@@H]1CN2CCC1CC2` [Palonosetron], the IC50 amounted to 1.57 ± 0.12 nM against 5-HT3A receptor S163A (setting [1]), 4.4 ± 1.8 nM on 5-HT3A receptor F130A (setting [1]), 0.88 ± 0.15 nM against WT 5-HT3AB receptor (setting [1]) and 1.3 ± 0.43 nM at 5-HT3A receptor D165K (setting [1]).

As for `NCCc1c[nH]c2ccc(O)cc12` [5-HT, serotonin], the “Hill Coefficient” value is 3.8 ± 0.4 on 5-HT3A receptor S163A (5-HT concentration-response); 1.5 ± 0.2 at 5-HT3A receptor F130A (5-HT concentration-response); 1.3 and 1.3 ± 0.2 on WT 5-HT3AB receptor (5-HT concentration-response); 3.0 ± 0.3 at 5-HT3A receptor D165K (5-HT concentration-response).
